From ChEMBL document CHEMBL1240458, “Probing the binding site of curcumin in Escherichia coli and Bacillus subtilis FtsZ--a structural insight to unveil antibacterial activity of curcumin” (Eur J Med Chem, 2010)
pIC50: −log10 of the molar value. Converted amounts (≈) assume the structure as drawn. The source made the active and inactive calls. The rule behind the calls is not given here.

Columns and labels:
Escherichia coli = test: Inhibition of Escherichia coli FtsZ polymerization
[1] = biological target: T1, Cell division protein FtsZ (Bacillus subtilis (strain 168), UniProt P17865); test: Inhibition of Bacillus subtilis FtsZ polymerization
T1 sequence (P17865 whole entry): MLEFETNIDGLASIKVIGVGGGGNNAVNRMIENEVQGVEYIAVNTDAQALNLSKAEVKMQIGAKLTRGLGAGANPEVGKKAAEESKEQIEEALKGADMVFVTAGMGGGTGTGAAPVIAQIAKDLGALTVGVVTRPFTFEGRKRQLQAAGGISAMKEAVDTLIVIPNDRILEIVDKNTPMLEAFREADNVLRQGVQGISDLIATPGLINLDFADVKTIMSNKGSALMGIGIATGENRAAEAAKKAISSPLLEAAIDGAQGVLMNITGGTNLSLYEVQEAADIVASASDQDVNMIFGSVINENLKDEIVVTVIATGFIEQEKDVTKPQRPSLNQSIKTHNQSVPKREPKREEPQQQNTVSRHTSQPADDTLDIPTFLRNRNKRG

[2] = Inhibition of FtsZ GTPase
[3] = Inhibition of FtsZ polymerization

Question: With `COc1cc(/C=C/C(=O)CC(=O)/C=C/c2ccc(O)c(OC)c2)ccc1O` [CURCUMIN] as the molecule, how does the inhibition (Escherichia coli) read?
Answer: Its inhibition is “Active”.

Question: What about the pIC50 [1] of the same molecule?
Answer: Its pIC50 is 4.52.

Question: What does the source list for `COC(=O)CC1Cc2cc3cc(OC)c(-c4c(OC)cc5cc6c(c(O)c5c4O)C(=O)OC(CC(=O)OC)C6)c(O)c3c(O)c2C(=O)O1` (centres undefined) [VIRIDITOXIN]?
Answer: IC50 [2]: 7 µg/mL (≈ 10.6 µM); IC50 [3]: 8.2 µg/mL (≈ 12.4 µM)
